Measurements as given in patent US8258098B2, “Antitumoral treatments” (Pharma Mar, S.A., priority 2006, dated 2012).
Like-named read-outs stand apart in the source and are kept apart here.

What was measured:
MX1 cells = test: MTS cytotoxicity assay, 72 hours, single agents and combinations with Aplidine; assay type: cell-based; settings: MX1, 72 hours drug exposure, read-out: IC50 (Molar)
Protocol: (§1) Day before plating cells all cultures were fed with fresh, complete growth media. On the harvest (plating) day cells were counted by Trypan Blue exclusion staining method (basic cell culture). Cells were harvested and seeded in 96 well microtiter plates at 10,000 cells per well in 190 μL of media and incubated for 24 hours to allow the cells to attach before drug addition. Cells were treated with the drugs and the cytotoxic effect was measured by the MTS Assay (Tetrazolium), which is a colorimetric method for determining the number of viable cells. After the 72 hours of incubation with drug, 25 μL of MTS+PMS solution was added to each microtiter well and incubated for 4 hours at 37° C. Plates were then removed from incubator and placed on plate shaker for 5 minutes (covered with aluminium foil for protection from light). Optical densities were read at 490 nm on spectrophotometer plate reader.
(§2) The microtiter plates were incubated for 72 hrs, at 5% CO2 and 37° C. The cytotoxic effect was measured by MTS Assay. Optical densities read at 490 nm. Normalized data was plotted and interpreted as described. Data was analysed as: • 1. Prism (Graphpad) software program was used to normalized the data to control values (100%=cell growth in the absence of agent (drug); 0%=blank control). • 2. Data normalized were plotted as scatter plots.
(§3) Conversely, antagonism was concluded when inhibition was lower than both maxima. […] Statistical significance was assessed by performing a student's t-test on the inhibition at each dose ratio versus the inhibition at the maximum for each drug.
(§4) As a visual aid, response values were plotted on a scatter plot with dose ratios given on the x-axis and % response values on the y-axis. […] In cases where response values at the two endpoints were approximately equivalent, points lying above or below this predicted line of additivity could be interpreted as representing antagonistic or synergistic drug interaction, respectively.

MOLT3 cells = test: as above; assay type: cell-based; settings: read-out: IC50 (Molar)
Protocol: as §1, §2, §3, §4

PC3 cells = test: as above; assay type: cell-based; settings: read-out: IC50 (Molar)
Protocol: as §1, §2, §3, §4

SKBR3 cells = test: as above; assay type: cell-based; settings: read-out: IC50 (Molar)
Protocol: as §1, §2, §3, §4

HT29 cells = test: as above; assay type: cell-based; settings: read-out: IC50 (Molar)
Protocol: as §1, §2, §3, §4

A549 cells = test: as above; assay type: cell-based; settings: A549, 72 hours drug exposure, read-out: IC50 (Molar)
Protocol: as §1, §2, §3, §4

HL60 cells = test: as above; assay type: cell-based; settings: read-out: IC50 (Molar)
Protocol: as §1, §2, §3, §4

RPMI-8226 cell line = test: cells; assay type: cell-based; settings: Homo sapiens, RPMI-8226, 72 h, read-out: IC50 (Molar)
Protocol: (§5) These cell lines were cultured in RPMI1640 medium with 10% FBS and 1% L-Glutamine. Each cell line was plated in a 96 well plates at 20,000 cell per well.
(§6) Each serial dilution was paired with 4 different concentrations of Bortezomib or Melphalan.
(§7) The plates were incubated for 3 days at 37° C. and 5% CO2. The plates were read using the Promega MTS assay system with MTS being metabolized by living cells turning into formazan which is […] at 490 nm wavelength. This is an indirect measure of cell viability. These were analyzed using the Softmax Pro program which determines cell viability based percent of control wells. This IC50 data was then transferred into the CalcuSyn program for combination index analysis. CalcuSyn compares IC50 the values of the drugs alone with that of the drugs in combination using an algorithm to determine a combination index.

U266B1 cell line = test: cells; assay type: cell-based; settings: 72 h, read-out: IC50 (Molar)
Protocol: as §5, §6, §7

[1] = system: RPMI 8226 human myeloma cells; test: Antitumor efficacy against subcutaneous-implanted myeloma xenograft; assay type: in vivo, male, SCID mice; settings: RPMI 8226 xenograft, median tumor weight; Aplidine 60 μg/kg/dose IP q1d × 9 day 18, 38; Bortezomib 0.35 mg/kg/dose IV
Protocol: (§8) The animals were housed in microisolator cages, up to five per cage in a 12-hour light/dark cycle. Six-weeks-old male, SCID mice were acclimated in the laboratories for one week prior to the experiment.
Each mouse received 2×10^7 cells resuspended in 0.2 mL of Matrigel®. […] Cells were harvested after four passages in culture. The cells were removed from the flasks, placed in 50-mL centrifuge tubes and centrifuged at 1,000 rpm for 10 minutes in a refrigerated centrifuge. The cell pellets were resuspended in fresh complete medium. The cell count and viability were determined with a Beckman Coulter VI CELL XR cell counter and viability analyzer. The cell suspension was recentrifuged, and the cell pellet was resuspended in Matrigel® at a cell density of 1.0×10^8 cells/mL and placed on wet ice.
The day of tumor cell inoculation was designated as Day 0. […] Those animals selected with tumors in the proper size range were assigned to four treatment groups so that the median tumor weights on the first day of treatment were as close to each other as possible. […]
Animals were observed daily and clinical signed were noted. The s.c. tumors were measured and the animals were weighed twice weekly starting with the first day of treatment, Day 18 after tumor cell inoculation.

HUNS-1 cells = test: MTS assay Example 2, single agents and combinations; assay type: cell-based; settings: HuNS1; HUNS-1, MTS; read-out: IC50 (Molar)
Protocol: (§9) The day before plating cells all cultures were fed with fresh, complete growth media. On the harvest (plating) day cells were counted by Trypan Blue exclusion staining method.
(§10) Cells were harvested and seeded in 96 well microtiter plates at 15,000 cells per well in 190 μl of media and incubated for 24 hours to allow the cells to attach before drug addition.
(§11) The cytotoxic effect was measured by the MTS Assay (Tetrazolium), which is a colorimetric method for determining the number of viable cells.
(§12) After 72 hours of incubation with tested agents 25 μl of MTS+PMS solution was added to each microtiter well and incubated for 4 hours at 37° C. Plates were then removed from incubator and placed on plate shaker for 5 minutes (covered with aluminum foil for protection from light). Optical densities were read at 490 nm on spectrophotometer plate reader. Data was analyzed as: • 1. Prism (Graphpad) software program was used to normalized the data to control values (100%=cell growth in the absence of agent (drug); 0%=blank control). • 2. Data normalized were plotted as scatter plots.
as §3
as §4, with “interaction” for “interaction,”

HL-60 cells = test: as above; assay type: cell-based; settings: Homo sapiens; HL-60, MTS; read-out: IC50 (Molar)
Protocol: as §9, §10, §11, §12, §3
as §4, with “interaction” for “interaction,”

U937 cells = test: as above; assay type: cell-based; settings: Homo sapiens, U-937, read-out: IC50 (Molar)
Protocol: as §9, §10, §11, §12, §3
as §4, with “interaction” for “interaction,”

RPMI 8226 cells = test: as above; assay type: cell-based; settings: Homo sapiens; RPMI 8226, MTS; read-out: IC50 (Molar)
Protocol: as §9, §10, §11, §12, §3
as §4, with “interaction” for “interaction,”

K562 cells = test: as above; assay type: cell-based; settings: Homo sapiens, read-out: IC50 (Molar)
Protocol: as §9, §10, §11, §12, §3
as §4, with “interaction” for “interaction,”

U266B-1 cells = test: as above; assay type: cell-based; settings: U266B-1, MTS; read-out: IC50 (Molar)
Protocol: as §9, §10, §11, §12, §3
as §4, with “interaction” for “interaction,”

MC116 cells = test: as above; assay type: cell-based; settings: Homo sapiens, read-out: IC50 (Molar)
Protocol: as §9, §10, §11, §12, §3
as §4, with “interaction” for “interaction,”

NCI-H929 cells = test: as above; assay type: cell-based; settings: Homo sapiens, read-out: IC50 (Molar)
Protocol: as §9, §10, §11, §12, §3
as §4, with “interaction” for “interaction,”

RAMOS cells = test: as above; assay type: cell-based; settings: Homo sapiens, read-out: IC50 (Molar)
Protocol: as §9, §10, §11, §12, §3
as §4, with “interaction” for “interaction,”

MOLT-3 cells = test: as above; assay type: cell-based; settings: Homo sapiens; MOLT-3, MTS; read-out: IC50 (Molar)
Protocol: as §9, §10, §11, §12, §3
as §4, with “interaction” for “interaction,”

HUT78 cells = test: MTS assay Example 2, single agents; assay type: cell-based; settings: Homo sapiens, read-out: IC50 (Molar)
Protocol: as §9, §10, §11, §12

H9 cells = test: MTS assay Example 2, single agents; assay type: cell-based; settings: Homo sapiens, read-out: IC50 (Molar)
Protocol: as §9, §10, §11, §12

RL human lymphoma cells = test: Antitumor efficacy against subcutaneous-implanted lymphoma xenograft; assay type: in vivo; settings: median tumor weight, Aplidine 60 μg/kg/dose IP q1d × 9 day 15, 28, Rituximab 20 mg/kg/dose IP q3d × 2 day 15, 22, 29, 36
Text: The purpose of this study was to evaluate the antitumor efficacy of Aplidine when administered in combination with rituximab against subcutaneous-implanted RL human lymphoma cells in […], SCID mice.
as §8
Each mouse was inoculated s.c. near the right flank with RL human lymphoma cells from an in vitro cell culture using a 23-gauge needle. Each mouse received 1.0×10^7 cells resuspended in 0.2 mL of Matrigel®. […] The cell count was determined with a Coulter Model Z1 cell counter and viability was measured following propidium iodide staining and analyzed using a Beckman Coulter EPICS XL flow cytometer. […]
Animals were observed daily and clinical signed were noted. The s.c. tumors were measured and the animals were weighed twice weekly starting with the first day of treatment, Day 15. Tumor volume was determined by caliper measurements (mm) and using the formula for an ellipsoid sphere as described in Example 7.

Row | Molecule | IC50 (MX1 cells) [µM] | IC50 (MOLT3 cells; MOLT3, 72 hours drug exposure) [µM] | IC50 (PC3 cells; PC3, 72 hours drug exposure) [µM] | IC50 (SKBR3 cells; SKBR3, 72 hours drug exposure) [µM] | IC50 (HT29 cells; HT29, 72 hours drug exposure) [µM] | IC50 (A549 cells) [µM] | IC50 (HL60 cells; HL60, 72 hours drug exposure) [µM] | also measured
1 | Nc1ccn([C@@H]2O[C@H](CO)[C@@H](O)[C@@H]2O)c(=O)n1 [AraC, cytosine arabinoside] | > 100 | 0.22 | > 100 | > 100 | > 100 | > 100 | 10 | –
2 | CC(C)C[C@H](NC(=O)[C@H](Cc1ccccc1)NC(=O)c1cnccn1)B(O)O [Bortezomib] | – | – | – | – | – | – | – | IC50 (RPMI-8226 cell line; RPMI8226, MTS): 0.00229 µM; IC50 (U266B1 cell line; U2661, MTS): 16.6 µM; % T/C on day 27 [1]: 70%; % T/C on day 48 [1]: 67%
3 | N[C@@H](Cc1ccc(N(CCCl)CCCl)cc1)C(=O)O [Melphalan] | – | – | – | – | – | – | – | IC50 (RPMI-8226 cell line): 16.1 µM; IC50 (U266B1 cell line): 0.00316 µM
4 | CCc1c2c(nc3ccc(O)cc13)-c1cc3c(c(=O)n1C2)COC(=O)[C@]3(O)CC [SN38, 7-ethyl-10-hydroxycamptothecin] | 0.15 | 1 | 46 | < 1e-05 | 0.12 | 1300 | < 1 | –
5 | COc1cc([C@@H]2c3cc4c(cc3[C@@H](O[C@@H]3O[C@@H]5CO[C@@H](C)O[C@H]5[C@H](O)[C@H]3O)[C@H]3COC(=O)[C@H]23)OCO4)cc(OC)c1O [VP16, etoposide] | – | – | – | – | – | – | – | IC50 (HUNS-1 cells): 3.1 µM; IC50 (HL-60 cells): 2 µM; IC50 (U937 cells): 0.44 µM; IC50 (RPMI 8226 cells): 0.37 µM; IC50 (K562 cells): 7.6 µM; IC50 (U266B-1 cells): 5.9 µM; IC50 (MC116 cells): 0.23 µM; IC50 (NCI-H929 cells): 2.4 µM; IC50 (RAMOS cells): 0.11 µM; IC50 (MOLT-3 cells): 0.024 µM; IC50 (HUT78 cells): 1.4 µM; IC50 (H9 cells): 0.73 µM
6 | N.N.[Cl][Pt][Cl] [cisplatin] | 170 | 0.57 | 87 | 7 | 720 | 6 | 12 | –
7 | COc1cccc2c1C(=O)c1c(O)c3c(c(O)c1C2=O)C[C@@](O)(C(=O)CO)C[C@@H]3O[C@H]1C[C@H](N)[C@H](O)[C@H](C)O1 [doxorubicin] | – | – | – | – | – | – | – | IC50 (MX1 cells; Homo sapiens): > 100 µM; IC50 (MOLT3 cells; Homo sapiens, MOLT-3, MOLT3, 72 hours drug exposure): 0.0069 µM; IC50 (PC3 cells; Homo sapiens, PC-3, PC3, 72 hours drug exposure): 11 µM; IC50 (SKBR3 cells; Homo sapiens, SK-BR-3, SKBR3, 72 hours drug exposure): 0.29 µM; IC50 (HT29 cells; Homo sapiens, HT-29, HT29, 72 hours drug exposure): > 100 µM; IC50 (A549 cells; Homo sapiens): 1.3 µM; IC50 (HL60 cells; Homo sapiens, HL-60, HL60, 72 hours drug exposure): > 100 µM
8 | Rituximab: Rituxan® (Rituximab), standard agent | – | – | – | – | – | – | – | % T/C on day 24 (RL human lymphoma cells): 95%; % T/C on day 38 (RL human lymphoma cells): 102%
9 | arsenic trioxide | 97 | 3.7 | 1200 | 100 | 80 | 420 | 20 | –
